According to ChEMBL document CHEMBL1149418, “Intermolecular interactions in the crystal structures of potential HIV-1 integrase inhibitors” (Bioorg Med Chem Lett, 2006):

Target: Human immunodeficiency virus type 1 integrase (Human immunodeficiency virus 1, UniProt Q7ZJM1)
Test: Antiviral activity against HIV1 integrase

Sequence of Human immunodeficiency virus type 1 integrase (Q7ZJM1 whole entry): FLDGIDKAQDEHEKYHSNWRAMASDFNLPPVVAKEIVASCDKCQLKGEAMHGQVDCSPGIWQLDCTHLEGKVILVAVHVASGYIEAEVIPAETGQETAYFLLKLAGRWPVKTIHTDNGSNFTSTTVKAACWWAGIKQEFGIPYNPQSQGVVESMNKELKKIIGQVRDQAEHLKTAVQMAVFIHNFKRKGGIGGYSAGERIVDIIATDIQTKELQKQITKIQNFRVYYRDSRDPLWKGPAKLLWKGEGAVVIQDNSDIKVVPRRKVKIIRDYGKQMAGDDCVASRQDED

Structure (SMILES) | IC50
COC(Nc1cc(Cl)c([N+](=O)[O-])cc1Cl)c1ccc2cccc(O)c2n1 (centres undefined) | 230 µM
Oc1cccc2ccc(/C=C/c3cccc(Cl)c3)nc12 | 230 µM
Cc1ccc2c(N=O)ccc(O)c2n1 | > 333 µM
O=C(O)c1ccc2ccc(/C=C/c3cccc(Cl)c3)nc2c1 | 230 µM
